Experimental data taken from patent US10463644B2, “Uses of sesquiterpene lactone compounds and their derivatives in drugs preparation” (ACCENDATECH, priority 2013, dated 2019).
Where two headings read alike, the source gives them in different places.

Legend:
[1] = tested on: IL-1β secreted by synoviocyte; assay: Content of IL-1β in culture supernatant of synoviocyte of RA model rats given test compound; assay type: in vivo; details: rat RA model, dose 30 mg/kg.2d; normal control 0.16 ± 0.034, NaCl 0.49 ± 0.136
In short: (§1)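 Content of secreted TNF-α, PGE2 and IL-1β measured in supernatants of synoviocytes cultured from RA model rats. Animals dosed at 30 mg/kg.2d; normal control and NaCl groups included.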

[2] = tested on: PGE2 secreted by synoviocyte; assay: Content of PGE2 in culture supernatant of synoviocyte of RA model rats given test compound; assay type: in vivo; details: rat RA model, dose 30 mg/kg.2d; normal control 8.34 ± 1.29, NaCl 32.44 ± 10.32
In short: as §1

cancer stem cells = assay: Survival rate of cancer stem cells after test compound is added (flow cytometry, Annexin V-FITC/PI, clinical specimen); assay type: cell-based, patient; details: Homo sapiens, 18 h
Description: (§2) Take fresh or cryopreserved clinical specimen (acute myelogenous leukemia (AML, marker is CD34^+/CD38^+), chronic myelogenous leukemia (CML, Ph+/CD34+/CXCR4+), chronic lymphocytic leukemia (CLL,CD133+/CD19−/CD38−), skin cancer (CD34+), breast cancer (CD44+/CD24−/ESA+), ovarian cancer (CD44+/CD117+), brain tumor (CD133+) prostate cancer (CD44+/CD24−), head-neck squamous cell carcinoma (CD44+), laryngeal cancer (CD133+), pancreatic cancer (ESA+/CD44+/CD24+), retinoblastoma (ABCG2/ALDH1), Children hepatoblastoma (CD34+/THY1+/c-kit+), liver cancer (CD133+), malignant melanoma (CD133+), colorectal cancer (EpCAM^high/CD44+), colon adenocarcinoma (CD44^high), glioma (ABCG-2/BCRP1), gastrointestinal tumor (ABCG-2/BCRP1), nasopharynx cancer (ABCG2), brain glioma (Dlk-1/Pref-1), gastric cancer (CD45+), lung adenocarcinoma (Sca-1/CD45-/Pecam-/CD34+), lung cancer (CD133+CD34+CD44+)) of patient. Take the acute myelogenous leukemia as the example, conduct density gradient centrifugation with Ficoll and take out the middle mononuclear cells, re-suspend it with serum-free IMDM after centrifuged. Adjust the concentration of cells into 1×10^6/mL and lay 24-well plate with 1 mL in each well, and then treat 18 hours with the compound to select with corresponding concentration. Collect the cells and centrifuge them at 1500 rps for 8 minutes, re-suspend the precipitation with […], mark the antibodies related to leukemia stem cell, avoid light to incubate 30 minutes at room temperature and then centrifuge it at 1500 rps, then wash away the unbound antibody CD34^+CD38^+. Re-suspend it with 100 μl 1× Binding Buffer and add respectively 5 μl Annexin V-FITC and PI, then avoid light to incubate 15 minutes before add 200 μl 1× Binding Buffer, then use flow cytometry to examine the marked apoptosis within one hour.

cancer cells = assay: Survival rate of cancer cells after test compound is added (flow cytometry, Annexin V-FITC/PI, clinical specimen); assay type: cell-based, patient; details: Homo sapiens, 18 h, read-out: Survival rate (%) All cells (Stem cells and ordinary cells)
Description: as §2

normal cells = assay: Survival rate of normal cells after test compound is added (flow cytometry, Annexin V-FITC/PI); assay type: cell-based; details: 18 h
Description: as §2

[3] = Head and neck squamous cell carcinomas
[4] = read-out: Survival rate (%) All cells (Stem cells and ordinary cells)
[5] = read-out: Survival rate (%) Stem cells

## C=C1C(=O)O[C@H]2[C@H]1CCC(C)=C1CC[C@@](C)(OC(=O)CCCc3cn(CCCCCCO)nn3)[C@@H]12 [Compound 21]
[1]
  Content of IL-1β in culture supernatant of synoviocyte (x ± s): 0.36 ± 0.057 ng/mL
[2]
  Content of PGE2 in culture supernatant of synoviocyte (x ± s): 19.59 ± 3.25 ng/mL
Cancer stem cells; AML
  viability at 10 µM: 66%
  viability at 20 µM: 47%
Cancer stem cells; Brain glioma
  viability at 10 µM: 68%
  viability at 20 µM: 53%
Cancer stem cells; Brain tumor
  viability at 10 µM: 65%
  viability at 20 µM: 54%
Cancer stem cells; Breast cancer
  viability at 10 µM: 62%
  viability at 20 µM: 55%
Cancer stem cells; CLL
  viability at 10 µM: 51%
  viability at 20 µM: 48%
Cancer stem cells; CML
  viability at 10 µM: 75%
  viability at 20 µM: 56%
Cancer stem cells; Children hepatoblastoma
  viability at 10 µM: 74%
  viability at 20 µM: 57%
Cancer stem cells; Colon adenocarcinoma
  viability at 10 µM: 58%
  viability at 20 µM: 44%
Cancer stem cells; Colorectal cancer
  viability at 10 µM: 73%
  viability at 20 µM: 58%
Cancer stem cells; Gastric cancer
  viability at 10 µM: 56%
  viability at 20 µM: 45%
Cancer stem cells; Gastrointestinal tumor
  viability at 10 µM: 64%
  viability at 20 µM: 46%
Cancer stem cells; Glioma
  viability at 10 µM: 78%
  viability at 20 µM: 67%
Cancer stem cells; [3]
  viability at 10 µM: 75%
  viability at 20 µM: 66%
Cancer stem cells; Laryngeal cancer
  viability at 10 µM: 66%
  viability at 20 µM: 52%
Cancer stem cells; Liver cancer
  viability at 10 µM: 64%
  viability at 20 µM: 55%
Cancer stem cells; Lung adenocarcinoma
  viability at 10 µM: 58%
  viability at 20 µM: 49%
Cancer stem cells; Lung cancer
  viability at 10 µM: 63%
  viability at 20 µM: 54%
Cancer stem cells; Malignant melanoma
  viability at 10 µM: 59%
  viability at 20 µM: 45%
Cancer stem cells; Nasopharynx cancer
  viability at 10 µM: 55%
  viability at 20 µM: 42%
Cancer stem cells; Ovarian cancer
  viability at 10 µM: 56%
  viability at 20 µM: 49%
Cancer stem cells; Pancreatic cancer
  viability at 10 µM: 57%
  viability at 20 µM: 50%
Cancer stem cells; Prostate cancer
  viability at 10 µM: 68%
  viability at 20 µM: 57%
Cancer stem cells; Retinoblastoma
  viability at 10 µM: 56%
  viability at 20 µM: 47%
Cancer stem cells; Skin cancer
  viability at 10 µM: 56%
  viability at 20 µM: 47%
Cancer cells; AML
  viability at 10 µM: 75%
  viability at 20 µM: 56%
Cancer cells; Brain glioma
  viability at 10 µM: 79%
  viability at 20 µM: 68%
Cancer cells; Brain tumor
  viability at 10 µM: 75%
  viability at 20 µM: 62%
Cancer cells; Breast cancer
  viability at 10 µM: 72%
  viability at 20 µM: 66%
Cancer cells; CLL
  viability at 10 µM: 63%
  viability at 20 µM: 62%
Cancer cells; CML
  viability at 10 µM: 82%
  viability at 20 µM: 69%
Cancer cells; Children hepatoblastoma
  viability at 10 µM: 81%
  viability at 20 µM: 66%
Cancer cells; Colon adenocarcinoma
  viability at 10 µM: 71%
  viability at 20 µM: 56%
Cancer cells; Colorectal cancer
  viability at 10 µM: 78%
  viability at 20 µM: 67%
Cancer cells; Gastric cancer
  viability at 10 µM: 67%
  viability at 20 µM: 55%
Cancer cells; Gastrointestinal tumor
  viability at 10 µM: 75%
  viability at 20 µM: 58%
Cancer cells; Glioma
  viability at 10 µM: 87%
  viability at 20 µM: 78%
Cancer cells; [3]
  viability at 10 µM: 86%
  viability at 20 µM: 82%
Cancer cells; Laryngeal cancer
  viability at 10 µM: 73%
  viability at 20 µM: 61%
Cancer cells; Liver cancer
  viability at 10 µM: 77%
  viability at 20 µM: 61%
Cancer cells; Lung adenocarcinoma
  viability at 10 µM: 67%
  viability at 20 µM: 64%
Cancer cells; Lung cancer
  viability at 10 µM: 74%
  viability at 20 µM: 68%
Cancer cells; Malignant melanoma
  viability at 10 µM: 69%
  viability at 20 µM: 56%
Cancer cells; Nasopharynx cancer
  viability at 10 µM: 65%
  viability at 20 µM: 56%
Cancer cells; Ovarian cancer
  viability at 10 µM: 64%
  viability at 20 µM: 57%
Cancer cells; Pancreatic cancer
  viability at 10 µM: 66%
  viability at 20 µM: 62%
Cancer cells; Prostate cancer
  viability at 10 µM: 77%
  viability at 20 µM: 65%
Cancer cells; Retinoblastoma
  viability at 10 µM: 65%
  viability at 20 µM: 59%
Cancer cells; Skin cancer
  viability at 10 µM: 64%
  viability at 20 µM: 57%
Normal cells; [4]
  viability at 10 µM: 95%
  viability at 20 µM: 94%
Normal cells; [5]
  viability at 10 µM: 94%
  viability at 20 µM: 92%
